Reference: patent US10899766B2, “Bridged piperidine derivatives” (Hoffmann-La Roche Inc., priority 2016, dated 2021)

System: γ-secretase
Experiment: Cellular γ-secretase assay (inhibition of Aβ42 secretion, AlphaLisa)
Assay type: cell-based
Conditions: Human neuroglioma H4 cells overexpressing human APP695 Swedish double mutation; 24 hr compound incubation; secreted Aβ42 in supernatant
Procedure: Cellular γ-Secretase Assay
Human neuroglioma H4 cells overexpressing human APP695 with the Swedish double mutation (K595N/M596L) were plated at 30,000 cells/well/100 μl in 96-well plates in IMDM media containing 10% FCS, 0.2 mg/l Hygromycin B and incubated at 37° C., 5% CO2.
3-4 hr post plating, compounds are a diluted in media and 50 μl is added as 1.5-fold concentrate to achieve the final concentration. Compound incubation is performed for 24 hr. Final doses typically range from 4 μM down to 0.0013 μM in half-log steps resulting in a eight point dose response curve.
Appropriate controls using vehicle only and reference compound were applied to this assay. The final concentration of Me2SO was 0.4%.
After incubation at 37° C., 5% CO2, the supernatant was subjected to quantification of secreted Aβ42 by the means of an AlphaLisa assay kit (Human Amyloid beta 1-42 Kit: Cat # AL203C, Perkin Elmer). 20 μl of the cell culture supernatant was transferred to an assay plate. Then 10 μl of a mixture of the AlphaLisa coupled capture antibody and the biotinylated detection antibody was added and incubated for 3 hours at room temperature while softly shaking the assay plate. After a further addition of 20 μl of the Donor beads the assay plate was incubated for 30 min at room temperature and constant shaking without exposure to direct light.
The assay plate was then read on a Paradigm AlphaLisa Reader using the build-in program with excitation at 680 nm and emission at […].
The measured signals were then used to calculate IC50 values for inhibition of Aβ42 secretion by nonlinear regression fit analysis using XLfit 5.3 software (IDBS).

EC50	Compound
11.4 nM	Cc1ccc(N2CCCn3nc(N[C@@H]4[C@@H]5CC[C@H]4CN(c4cc(Cl)ncn4)C5)nc32)cc1F [Example 13, N-[(1R,5S,8S)-3-(6-chloropyrimidin-4-yl)-3-azabicyclo[3.2.1]octan-8-yl]-4-(3-fluoro-4-methyl-phenyl)-6,7-dihydro-5H-[1,2,4]triazolo[1,5-a]pyrimidin-2-amine]
26.4 nM	COc1cc(N2C[C@H]3CC[C@@H](C2)[C@@H]3Nc2nc3n(n2)CCCN3c2ccc(F)c(F)c2)cnn1 [Example 18, 4-(3,4-difluorophenyl)-N-[(1R,5S,8S)-3-(6-methoxypyridazin-4-yl)-3-azabicyclo[3.2.1]octan-8-yl]-6,7-dihydro-5H-[1,2,4]triazolo[1,5-a]pyrimidin-2-amine]
30.6 nM	Cc1noc(N2C[C@H]3CC[C@@H](C2)[C@@H]3Nc2nc3n(n2)CCCN3c2ccc(F)c(F)c2)n1 [Example 15, 4-(3,4-difluorophenyl)-N-[(1R,5S,8S)-3-(3-methyl-1,2,4-oxadiazol-5-yl)-3-azabicyclo[3.2.1]octan-8-yl]-6,7-dihydro-5H-[1,2,4]triazolo[1,5-a]pyrimidin-2-amine]
15.8 nM	Fc1ccc(N2CCCn3nc(N[C@@H]4[C@@H]5CC[C@H]4CN(c4ccnc(C(F)(F)F)c4)C5)nc32)cc1F [Example 1, 4-(3,4-difluorophenyl)-N-[(1R,5S,8S)-3-[2-(trifluoromethyl)-4-pyridyl]-3-azabicyclo[3.2.1]octan-8-yl]-6,7-dihydro-5H-[1,2,4]triazolo[1,5-a]pyrimidin-2-amine]
21.4 nM	FC(F)(F)c1ccc(N2CCCn3nc(N[C@@H]4[C@@H]5CC[C@H]4CN(c4ccnc(C(F)(F)F)c4)C5)nc32)cc1 [Example 6, 4-[4-(trifluoromethyl)phenyl]-N-[(1R,5S,8S)-3-[2-(trifluoromethyl)-4-pyridyl]-3-azabicyclo[3.2.1]octan-8-yl]-6,7-dihydro-5H-[1,2,4]triazolo[1,5-a]pyrimidin-2-amine]
34.8 nM	Fc1ccc(N2CCCCn3nc(N[C@@H]4[C@@H]5CC[C@H]4CN(c4ccnc(C(F)(F)F)c4)C5)nc32)cc1F [Example 22, 4-(3,4-difluorophenyl)-N-[(1R,5S,8S)-3-[2-(trifluoromethyl)-4-pyridyl]-3-azabicyclo[3.2.1]octan-8-yl]-5,6,7,8-tetrahydro-[1,2,4]triazolo[1,5-a][1,3]diazepin-2-amine]
17.2 nM	Fc1ccc(N2CCCn3nc(N[C@@H]4[C@@H]5CC[C@H]4CN(c4cnnc(Cl)c4)C5)nc32)cc1F [Example 16, N-[(1R,5S,8S)-3-(6-chloropyridazin-4-yl)-3-azabicyclo[3.2.1]octan-8-yl]-4-(3,4-difluorophenyl)-6,7-dihydro-5H-[1,2,4]triazolo[1,5-a]pyrimidin-2-amine]
58 nM	Fc1ccc(N2CCCn3nc(N[C@@H]4[C@@H]5CC[C@H]4CN(c4cc(Cl)ncn4)C5)nc32)cc1F [Example 17, N-[(1R,5S,8S)-3-(6-chloropyrimidin-4-yl)-3-azabicyclo[3.2.1]octan-8-yl]-4-(3,4-difluorophenyl)-6,7-dihydro-5H-[1,2,4]triazolo[1,5-a]pyrimidin-2-amine]
5.9 nM	Fc1ccc(N2CCCn3nc(N[C@@H]4[C@@H]5CC[C@H]4CN(c4ccnc(Cl)c4)C5)nc32)cc1F [Example 2, N-[(1R,5S,8S)-3-(2-chloro-4-pyridyl)-3-azabicyclo[3.2.1]octan-8-yl]-4-(3,4-difluorophenyl)-6,7-dihydro-5H-[1,2,4]triazolo[1,5-a]pyrimidin-2-amine]
89.2 nM	Fc1ccc(N2CCn3nc(N[C@@H]4[C@@H]5CC[C@H]4CN(c4ccnc(C(F)(F)F)c4)C5)nc32)cc1F [Example 4, 4-(3,4-difluorophenyl)-N-[(1R,5S,8S)-3-[2-(trifluoromethyl)-4-pyridyl]-3-azabicyclo[3.2.1]octan-8-yl]-5,6-dihydroimidazo[1,2-b][1,2,4]triazol-2-amine]
23.1 nM	Cc1cc(N2C[C@H]3CC[C@@H](C2)[C@@H]3Nc2nc3n(n2)CCCN3c2ccc(F)c(F)c2)cnn1 [Example 20, 4-(3,4-difluorophenyl)-N-[(1R,5S,8S)-3-(6-methylpyridazin-4-yl)-3-azabicyclo[3.2.1]octan-8-yl]-6,7-dihydro-5H-[1,2,4]triazolo[1,5-a]pyrimidin-2-amine]
23.3 nM	Cc1cc(N2C[C@H]3CC[C@@H](C2)[C@@H]3Nc2nc3n(n2)CCCCN3c2ccc(F)c(F)c2)ncn1 [Example 23, 4-(3,4-difluorophenyl)-N-[(1R,5S,8S)-3-(6-methylpyrimidin-4-yl)-3-azabicyclo[3.2.1]octan-8-yl]-5,6,7,8-tetrahydro-[1,2,4]triazolo[1,5-a][1,3]diazepin-2-amine]
15.5 nM	COc1cc(N2C[C@H]3CC[C@@H](C2)[C@@H]3Nc2nc3n(n2)CCCN3c2ccc(F)c(F)c2)ncn1 [Example 14, 4-(3,4-difluorophenyl)-N-[(1R,5S,8S)-3-(6-methoxypyrimidin-4-yl)-3-azabicyclo[3.2.1]octan-8-yl]-6,7-dihydro-5H-[1,2,4]triazolo[1,5-a]pyrimidin-2-amine]
80.4 nM	COc1cc(N2C[C@H]3CC[C@@H](C2)[C@@H]3Nc2nc3n(n2)CCCCN3c2ccc(F)c(F)c2)ncn1 [Example 24, 4-(3,4-difluorophenyl)-N-[(1R,5S,8S)-3-(6-methoxypyrimidin-4-yl)-3-azabicyclo[3.2.1]octan-8-yl]-5,6,7,8-tetrahydro-[1,2,4]triazolo[1,5-a][1,3]diazepin-2-amine]
13.9 nM	Cc1ncnc(N2C[C@H]3CC[C@@H](C2)[C@@H]3Nc2nc3n(n2)CCCN3c2ccc(F)c(F)c2)c1F [Example 19, 4-(3,4-difluorophenyl)-N-[(1R,5S,8S)-3-(5-fluoro-6-methyl-pyrimidin-4-yl)-3-azabicyclo[3.2.1]octan-8-yl]-6,7-dihydro-5H-[1,2,4]triazolo[1,5-a]pyrimidin-2-amine]
30.2 nM	FC(F)(F)c1ccc(N2CCCCn3nc(N[C@@H]4[C@@H]5CC[C@H]4CN(c4ccnc(C(F)(F)F)c4)C5)nc32)cc1 [Example 7, 4-[4-(trifluoromethyl)phenyl]-N-[(1R,5S,8S)-3-[2-(trifluoromethyl)-4-pyridyl]-3-azabicyclo[3.2.1]octan-8-yl]-5,6,7,8-tetrahydro-[1,2,4]triazolo[1,5-a][1,3]diazepin-2-amine]
19.2 nM	Cc1cc(N2C[C@H]3CC[C@@H](C2)[C@@H]3Nc2nc3n(n2)CCCCN3c2ccc(C(F)(F)F)cc2)ncn1 [Example 9, N-[(1R,5S,8S)-3-(6-methylpyrimidin-4-yl)-3-azabicyclo[3.2.1]octan-8-yl]-4-[4-(trifluoromethyl)phenyl]-5,6,7,8-tetrahydro-[1,2,4]triazolo[1,5-a][1,3]diazepin-2-amine]
26.8 nM	Cc1cc(N2C[C@H]3CC[C@@H](C2)[C@@H]3Nc2nc3n(n2)CCN3c2ccc(C(F)(F)F)cc2)ncn1 [Example 12, N-[(1R,5S,8S)-3-(6-methylpyrimidin-4-yl)-3-azabicyclo[3.2.1]octan-8-yl]-4-[4-(trifluoromethyl)phenyl]-5,6-dihydroimidazo[1,2-b][1,2,4]triazol-2-amine]
23.4 nM	Fc1ccc(N2CCCCn3nc(N[C@@H]4[C@@H]5CC[C@H]4CN(c4cnnc(Cl)c4)C5)nc32)cc1F [Example 25, N-[(1R,5S,8S)-3-(6-chloropyridazin-4-yl)-3-azabicyclo[3.2.1]octan-8-yl]-4-(3,4-difluorophenyl)-5,6,7,8-tetrahydro-[1,2,4]triazolo[1,5-a][1,3]diazepin-2-amine]
31.2 nM	Cc1ccc(N2CCCn3nc(N[C@@H]4[C@@H]5CC[C@H]4CN(c4ccnc(C(F)(F)F)c4)C5)nc32)cc1F [Example 10, 4-(3-fluoro-4-methyl-phenyl)-N-[(1R,5S,8S)-3-[2-(trifluoromethyl)-4-pyridyl]-3-azabicyclo[3.2.1]octan-8-yl]-6,7-dihydro-5H-[1,2,4]triazolo[1,5-a]pyrimidin-2-amine]
27.8 nM	Cc1cc(N2C[C@H]3CC[C@@H](C2)[C@@H]3Nc2nc3n(n2)CCCN3c2ccc(C)c(F)c2)ncn1 [Example 11, 4-(3-fluoro-4-methyl-phenyl)-N-[(1R,5S,8S)-3-(6-methylpyrimidin-4-yl)-3-azabicyclo[3.2.1]octan-8-yl]-6,7-dihydro-5H-[1,2,4]triazolo[1,5-a]pyrimidin-2-amine]
11.7 nM	Cc1cc(N2C[C@H]3CC[C@@H](C2)[C@@H]3Nc2nc3n(n2)CCCN3c2ccc(C(F)(F)F)cc2)ncn1 [Example 8, N-[(1R,5S,8S)-3-(6-methylpyrimidin-4-yl)-3-azabicyclo[3.2.1]octan-8-yl]-4-[4-(trifluoromethyl)phenyl]-6,7-dihydro-5H-[1,2,4]triazolo[1,5-a]pyrimidin-2-amine]
